Reference: ChEMBL document CHEMBL1129361, “Modulators of leukotriene biosynthesis and receptor activation” (J Med Chem, 1996)
The source made the active and inactive calls. The calls are words filed in the database; no cut-off is given here.

Legend:
[1] = biological target: T1, Cysteinyl leukotriene receptor (Homo sapiens, UniProt Q9Y271+Q9NS75); assay: Binding affinity against Cysteinyl leukotriene D4 receptor; format: protein assay
T1 sequence (Q9Y271 whole entry): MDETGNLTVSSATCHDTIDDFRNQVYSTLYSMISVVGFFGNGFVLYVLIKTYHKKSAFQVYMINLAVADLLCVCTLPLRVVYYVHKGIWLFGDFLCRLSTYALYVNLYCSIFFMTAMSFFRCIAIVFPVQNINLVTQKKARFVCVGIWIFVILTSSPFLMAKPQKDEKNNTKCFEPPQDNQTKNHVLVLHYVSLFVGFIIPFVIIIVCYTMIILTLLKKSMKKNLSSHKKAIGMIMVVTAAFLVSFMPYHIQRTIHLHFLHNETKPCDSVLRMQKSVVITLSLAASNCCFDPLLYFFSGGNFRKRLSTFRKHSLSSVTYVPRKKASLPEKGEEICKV
T1 sequence (Q9NS75 whole entry): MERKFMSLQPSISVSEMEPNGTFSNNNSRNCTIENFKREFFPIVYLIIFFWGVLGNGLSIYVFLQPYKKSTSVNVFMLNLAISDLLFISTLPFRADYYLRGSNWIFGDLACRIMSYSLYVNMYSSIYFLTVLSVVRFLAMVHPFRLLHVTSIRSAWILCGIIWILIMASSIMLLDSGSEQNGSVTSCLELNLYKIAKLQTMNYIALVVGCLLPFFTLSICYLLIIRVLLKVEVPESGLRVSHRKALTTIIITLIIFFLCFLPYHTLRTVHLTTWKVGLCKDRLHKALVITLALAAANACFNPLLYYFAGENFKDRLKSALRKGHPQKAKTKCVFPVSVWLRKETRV

Homo sapiens [2] = assay: Compound was tested for inhibition of LTD4 bronchoconstriction following 4 mg/kg oral dose; active; format: functional, organism-based; set-up: dose 4 mg/kg; conditions: Lung
Cavia porcellus [3] = species: Cavia porcellus; assay: Compound was tested for LTD4 induced guinea pig trachea contraction; format: functional
Monkey = assay: Compound was tested for in vivo inhibition against squirrel monkey antigen bronchospasm at 1 mg/kg; format: functional; conditions: Bronchiole, in Primates
Rattus norvegicus [4] = assay: Compound was tested for in vivo inhibition against rat antigen bronchospasm; format: functional
Rattus norvegicus [5] = assay: Compound was tested for in vivo inhibition against rat ionophore LTB4 formation; format: functional
[6] = Inhibitory activity against LT biosynthesis; […]; format: functional
Homo sapiens [7] = species: Homo sapiens; assay: Compound was tested in vitro inhibitory activity against human neutrophil CD11b/CD18.; format: functional
Cavia porcellus [8] = species: Cavia porcellus; assay: Compound was tested for LTD4 induced guinea pig trachea contraction.; format: functional
Homo sapiens [9] = assay: Compound was shown 8 fold shift in LTD4 dose response curve 2 hours after 250 mg oral dose.; format: functional
[10] = phase 1 oral half life at a dose 400 mg.; format: ADME, organism-based; conditions: human, in vivo
Cavia porcellus [11] = assay: Compound was tested for in vivo inhibition on gp antigen bronchospasm.; format: functional; conditions: Bronchiole
Rattus norvegicus [12] = assay: Compound was tested for in vivo inhibition on rat PMNL.; format: functional
Homo sapiens [13] = species: Homo sapiens; assay: Compound was tested for in vitro inhibition on human PMNL.; format: functional
Cavia porcellus [14] = assay: Compound was tested for in vivo inhibition against antigen bronchospasm; format: functional; conditions: Bronchiole
Mus musculus [15] = species: Mus musculus; assay: Compound was tested for in vitro inhibition against murine macrophage; format: functional
Phosphodiesterase 3 = Phosphodiesterase 3 (Homo sapiens, UniProt Q14432+Q13370); assay: Inhibition of Phosphodiesterase 3; format: protein assay
Cavia porcellus [16] = species: Cavia porcellus; assay: Compound was tested for in vitro inhibition against broken guinea pig peritoneal exudate cells; format: functional
Phosphodiesterase 4 = Phosphodiesterase 4 (Homo sapiens, UniProt P27815+Q08499+Q07343+Q08493); assay: Inhibition of Phosphodiesterase 4; format: protein assay
Homo sapiens [17] = species: Homo sapiens; assay: Compound was tested for in vitro inhibition against human PMNL; format: functional
RBL-2H3 = assay: Compound was tested for in vitro inhibition against 5-LO translocation in rat basophilic leukemia cells (RBL-2H3); format: functional, cell-based
Rattus norvegicus [18] = species: Rattus norvegicus; assay: Compound was tested for in vitro inhibition against rat blood; format: functional
Cavia porcellus [19] = assay: Compound was tested in vivo for LTB4 induced neutrophil chemotaxis in guinea pig.(orally) at duration 21 h; format: functional; conditions: po
Homo sapiens [20] = species: Homo sapiens; assay: Compound was tested in vitro for inhibitory activity in LTB4 induced chemotaxis; format: functional, organism-based
Homo sapiens [21] = species: Homo sapiens; assay: Compound was tested in vitro for inhibitory activity in LTB4 induced neutrophil degranulation.; format: functional, organism-based
[22] = biological target: Leukotriene B4 receptor 1 (Homo sapiens, UniProt Q15722); assay: Compound was tested for inhibitory activity against human neutrophil LTB4 receptor binding
Cavia porcellus [23] = assay: Compound was tested in vivo inhibitory activity against PMA induced ear edema in guinea pig (orally); format: functional; conditions: po
Cavia porcellus [24] = assay: compound was tested in vivo for LTB4 induced neutrophil chemotaxis in guinea pig(orally) at duration 24 h; format: functional; conditions: po
Homo sapiens [25] = species: Homo sapiens; assay: Compound was tested in vitro for inhibitory activity in LTB4 induced neutrophil degranulation; format: functional
Cavia porcellus [26] = assay: Compound was tested in vivo inhibitory activity against LTB4 induced neutrophil influx in guinea pig(orally); format: functional; conditions: po
Cavia porcellus [27] = assay: Compound was tested in vivo inhibitory activity against LTB4 induced neutropenia in guinea pig.(orally); format: functional; conditions: po
Homo sapiens [28] = species: Homo sapiens; assay: Compound was tested in vitro inhibitory activity against human neutrophil degranulation.; format: functional
Mus musculus [29] = assay: Compound was tested in vivo inhibitory activity against LTB4 induced mouse peritonitis (orally); format: functional; conditions: po
Cavia porcellus [30] = assay: Compound was tested in vivo inhibitory activity against AA induced ear edema; format: functional
Cavia porcellus [31] = assay: Compound was tested in vivo inhibitory activity to block 12 (R)-HETE skin inflammation (peroral administration) at 3 mg/kg; format: functional; conditions: route oral
Cavia porcellus [32] = assay: Compound was tested in vivo inhibitory activity against LTB4 induced neutrophil cutaneous influx in guinea pig; format: functional
Homo sapiens [33] = species: Homo sapiens; assay: Compound was tested in vitro inhibitory activity against […] induced Ca mobilization.; format: functional, organism-based
Homo sapiens [34] = species: Homo sapiens; assay: Compound was tested in vitro inhibitory activity against […] induced chemotaxis of human neutrophil; format: functional
Homo sapiens [35] = assay: Shift in LTB-4 dose response curve for CD11b upregulation in normal volunteers; format: functional
Mus musculus [36] = assay: Compound was tested in vivo inhibitory activity against LTB4 induced neutrophil cutaneous influx in mouse.; format: functional
[37] = biological target: T2, Cysteinyl leukotriene receptor 1 (Homo sapiens, UniProt Q9Y271); assay: Compound were tested for inhibitory activity against Cysteinyl leukotriene D4 receptor
T2 sequence (Q9Y271 whole entry): T1 sequence (Q9Y271 whole entry)

Homo sapiens [38] = assay: Fold shift in LTD4 dose response curve following 280 mg intravenous dose in asthmatic patients.; format: functional

Sequence of Leukotriene B4 receptor 1 (Q15722 whole entry): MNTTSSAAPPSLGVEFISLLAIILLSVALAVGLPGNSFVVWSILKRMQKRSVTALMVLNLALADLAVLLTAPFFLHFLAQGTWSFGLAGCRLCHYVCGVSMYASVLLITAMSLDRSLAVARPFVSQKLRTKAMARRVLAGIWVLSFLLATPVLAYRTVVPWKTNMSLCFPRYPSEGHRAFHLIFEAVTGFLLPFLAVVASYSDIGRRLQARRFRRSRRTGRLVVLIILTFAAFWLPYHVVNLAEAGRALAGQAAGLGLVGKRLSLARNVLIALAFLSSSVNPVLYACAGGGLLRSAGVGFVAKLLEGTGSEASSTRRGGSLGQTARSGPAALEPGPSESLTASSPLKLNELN

Structure (SMILES): O=C(O)CCS[C@@H](CC(=O)O)c1ccccc1CCCCCCCCc1ccccc1
- Ki [1]: 0.06 µM
- Activity (Homo sapiens [2]): Active

Structure (SMILES): CCCCCCCCC/C=C\C=C\[C@@H](SCCC(=O)O)[C@@H](O)c1cccc(-c2nnn[nH]2)c1
- Kb (Cavia porcellus [3]; read-out: pA2 (converted)): 0.00501 µM

Structure (SMILES): CC(C)c1ccc2c(c1)c(SC(C)(C)C)c(CC(C)(C)C(=O)O)n2Cc1ccc(Cl)cc1
- inhibition in vivo at 1 mg/kg (Monkey): 85%
- ED50 (Rattus norvegicus [4]): 0.036 mg/kg
- ED50 (Rattus norvegicus [5]): 0.2 mg/kg
- IC50 [6]: 0.005 µM

Structure (SMILES): CCc1cc(-c2ccc(F)cc2)c(O)cc1OCCCOc1ccc2c(=O)c3cc(C(=O)O)ccc3oc2c1CCC(=O)O
- IC50 (Homo sapiens [7]): 0.0012 µM

Structure (SMILES): O=C(O)CC[C@@H](/C=C\Cc1ccc(OCCCCOc2ccccc2)cc1)Sc1ccc(C(=O)O)cc1
- pKB (Cavia porcellus [8]): 8.4
- Activity (Homo sapiens [9]): 8

Structure (SMILES): CC(=O)N(O)C/C=C/c1cccc(Oc2ccccc2)c1
- half-life [10]: 2 h
- ED50 (Cavia porcellus [11]): 10 mg/kg
- ED50 (Rattus norvegicus [12]): 54 mg/kg
- IC50 (Homo sapiens [13]): 0.04 µM

Structure (SMILES): C[C@H](C(=O)O)c1ccc2ccc(OCc3ccc4ccccc4n3)cc2c1.NC(CO)(CO)CO
- ED50 (Cavia porcellus [14]): 7.3 mg/kg
- IC50 (Mus musculus [15]): 0.16 µM
- IC50 (Phosphodiesterase 3): 15.8 µM
- IC50 (Cavia porcellus [16]): 5.7 µM
- IC50 (Phosphodiesterase 4): 8.9 µM
- IC50 (Homo sapiens [17]): 1.2 µM
- IC50 (RBL-2H3): 0.053 µM
- IC50 (Rattus norvegicus [18]): 8.1 µM

Structure (SMILES): CCCc1c(OCCCC/C=C\C=C\[C@H](Sc2ccc3c(=O)cc(C(=O)[O-])oc3c2)[C@H](O)c2cccc(C(F)(F)F)c2)ccc(C(C)=O)c1O.[Na+]
- Ki [1]: 0.026 µM

Structure (SMILES): CCCc1c(OCCCOc2ccc(C(=O)NC)c(OC)c2CC2CC2)ccc2c1OC(CCC(=O)O)CC2 (stereo not drawn)
- ED50 (Cavia porcellus [19]): 0.09 mg/kg
- IC50 (Homo sapiens [20]): 0.038 µM
- IC50 (Homo sapiens [21]): 0.029 µM
- IC50 [22]: 0.0015 µM

Structure (SMILES): CCCc1c(OCCCOc2ccc(C(=O)NC)c(OC)c2CC2CC2)ccc2c1O[C@H](CCC(=O)O)CC2
- ED50 (Cavia porcellus [23]): < 2.5 mg/kg
- ED50 (Cavia porcellus [24]): 0.07 mg/kg
- IC50 (Homo sapiens [20]): 0.032 µM
- IC50 (Homo sapiens [25]): 0.019 µM
- IC50 [22]: 0.0013 µM

Structure (SMILES): COc1ccc(/C=C/CCCCOc2cccc(OCCCCC(=O)O)c2CCC(=O)O)cc1
- ED50 (Cavia porcellus [26]): 5.3 mg/kg
- ED50 (Cavia porcellus [27]): 25.6 mg/kg
- IC50 (Homo sapiens [28]): 1.6 µM

Structure (SMILES): COc1ccc(CCCCCCCCOc2ccc(CSCc3cccc(C(=O)O)c3)nc2/C=C/C(=O)O)cc1
- ED50 (Mus musculus [29]): 7.1 mg/kg
- ED50 (Cavia porcellus [30]): 0.58 mg ear-1

Structure (SMILES): O=C(O)C1(c2ccc3c(c2)OC[C@H](Cc2ccc(-c4ccccc4)cc2)[C@H]3O)CCCC1
- inhibition in vivo at 3 mg/kg (Cavia porcellus [31]): 75%
- ED50 (Cavia porcellus [32]): 0.3 mg/kg
- IC50 (Homo sapiens [33]): 0.94 µM
- IC50 (Homo sapiens [34]): 0.005 µM
- Activity (Homo sapiens [35]): 10
- ED50 (Mus musculus [36]): 4.2 mg/kg
- Kb (Homo sapiens [7]; read-out: pA2 (converted)): 0.01 µM

Structure (SMILES): CN(C)C(=O)CCS[C@H](SCCC(=O)[O-])c1cccc(/C=C/c2ccc3ccc(Cl)cc3n2)c1.[Na+]
- IC50 [37]: 0.0031 µM
- pKB (Cavia porcellus [3]): 8.8

Structure (SMILES): CN(C)C(=O)CCSC(SCCC(=O)[O-])c1cccc(/C=C/c2ccc3ccc(Cl)cc3n2)c1.[Na+] (stereo not drawn)
- Ki [1]: 0.0002 µM
- Activity (Homo sapiens [38]): >83
